Our source for the IC50 values is article PMC11983575, “Study on the synthesis and biological activity of kojic acid triazol thiosemicarbazide Schiff base derivatives” (Journal of Enzyme Inhibition and Medicinal Chemistry, 2025).

The nature of assay [1]: ABTS radical cation scavenging activity assay. As to conditions: 734 nm; read-out: ABTS+/IC50 (μM) ± SD. As to the method: ABTS free radical scavenging activity was performed according to the procedure described by Zhang et al.[40] Test solution of ABTS decolourisation assay was prepared by mixing 2.45 mM potassium persulfate and 7 mM ABTS at 8:12 volume/volume ratio. The working solution was kept in the dark at room temperature for 12–18 h. Before ABTS radical scavenging test, the ABTS test solution was diluted with DMSO to absorbance of 0.7 (±0.02) at 734 nm. One millilitre of diluted ABTS test solution was added to 10 μl of DMSO or test sample. After initial mixing, the working solution was kept in the dark at room temperature for 2–6 min, and the absorbance was measured at 734 nm. This test was carried out in triplicate. DMSO was used as a control. Ascorbic acid was used as antioxidant standard for comparison of the activity. The absorbance of test samples was calculated by the following formula. ABTS scavenging ability %=absorbance of standard−absorbance of sample/absorbance of standard×100.

Assay [2] is described as follows: DPPH free radical scavenging activity assay. As to conditions: DPPH 150 μM, 30 min, 517 nm; read-out: DPPH/IC50 (μM) ± SD. As to the method:
The anti-oxidation effect on DPPH radical was determined by a slightly modified version of a previously described DPPH radical scavenging assay. Reaction mixtures consisted of 100 μl of DPPH (150 μM), 20 μl of increasing concentration of test compounds and the volume was adjusted to 200 μl in each well with DMSO. The assay solution was then incubated at room temperature (25 °C) for 30 min in the dark. After the incubation, absorbance at 517 nm was measured by using UV-2600 spectrophotometer. The experiments were undertaken in triplicate. DMSO was used as a control. Ascorbic acid was used as antioxidant standard for comparison of the activity. The calculation of DPPH radical scavenging activity was followed by this formula: DPPH radical scavenging activity %=absorbance of standard−absorbance of sample/Absorbance of standard×100
A general note: Loss of DPPH colour is used to gauge radical scavenging.

In a further assay the target is mushroom tyrosinase (Agaricus bisporus, UniProt C7FF04). The experiment in a line: In vitro mushroom tyrosinase inhibition (L-DOPA substrate). It is filed as biochemical. As to conditions: 475 nm, read-out: IC50 (μM) ± SD, inhibitory tyrosinase activity. The procedure:
The mushroom tyrosinase inhibitory activity was determined according to previous described method. Briefly, 168 μl of phosphate buffer (0.1 M, pH 6.8), 10 μl of mushroom tyrosinase (0.5 mg/ml, Sigma Chemical, St. Louis, MO) and 2 μl of the inhibitor solution were placed in the wells of a 96-well micro plate. After pre-incubation for 20 min at 37 °C, 20 μl of 2.0 mg/ml L-DOPA (3,4-dihydroxyphenylalanine, Sigma Chemical, St. Louis, MO) was added and the enzyme activity was measured at 475 nm every 60 s for 180 s in a Microplate Reader (Bio-Rad Laboratories, Inc., Hercules, CA). Kojic acid and phosphate buffer were respectively used as positive and negative control. The extent of inhibition by the test compounds was expressed as the percentage of concentration necessary to achieve 50% inhibition (IC50). The percentage of inhibition was calculated as follows: inhibitory rate (%) = [Ac − At)/Ac] × 100. Ac is the absorbance of the negative control and At is the absorbance of the test compound. Each concentration was analysed in three independent experiments run in triplicate. The IC50 values were determined by the data analysis software GraphPad Prism 8 (La Jolla, CA).
The tyrosinase inhibition measurements of compounds 6a–6x were carried out using L-DOPA as substrate. Kojic acid was selected as a positive control compound. […]. […] Moreover, inhibitory activity of compound with hydroxyl group at papa position is better than the inhibitory activity of compound with hydroxyl group at meta position, and inhibitory activity of compound with hydroxyl group at meta position is better than the inhibitory activity of compound with hydroxyl group at ortho position. […]. […] In addition, with the increase of atomic radius, the inhibitory activity gradually decreases. (3) The inhibitory activity of alkoxy substituted compound is better than that of alkyl substituted compound. (4) Comparing the tyrosinase inhibitory activity of compounds with halogen atom (6b–6d, 6q–6s) and compounds with methyl or methoxy (6e–6f, 6t–6u), when the hydrogen (R^2) was replaced by the methyl (R^2), the inhibitory activity was decreased.

Chain of mushroom tyrosinase (C7FF04 1-392): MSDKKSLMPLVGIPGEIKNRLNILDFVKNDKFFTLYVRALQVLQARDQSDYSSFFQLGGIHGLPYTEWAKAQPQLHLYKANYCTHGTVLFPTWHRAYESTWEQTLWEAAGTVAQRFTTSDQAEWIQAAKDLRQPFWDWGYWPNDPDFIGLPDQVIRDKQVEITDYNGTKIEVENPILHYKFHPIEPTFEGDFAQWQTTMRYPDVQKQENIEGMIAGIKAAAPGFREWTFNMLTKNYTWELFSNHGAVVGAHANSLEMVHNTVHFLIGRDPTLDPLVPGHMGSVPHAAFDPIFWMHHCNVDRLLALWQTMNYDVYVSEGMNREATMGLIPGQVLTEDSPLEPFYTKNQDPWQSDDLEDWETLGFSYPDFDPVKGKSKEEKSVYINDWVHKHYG

`CC(C)(C)c1cccc(C=NNC(N)=S)c1OCc1cn(Cc2cc(=O)c(O)co2)nn1` [Compound 6k, 2-(3-(Tert-butyl)-2-((1-((5-hydroxy-4-oxo-4H-pyran-2-yl)methyl)-1H-1,2,3-triazol-4-yl)methoxy)benzylidene)hydrazinecarbothioamide]: the results for the IC50 in assay [1] and in assay [2] were 9.31 ± 0.022 µM and 49.17 ± 0.077 µM, respectively.

For “2-(3-((1-((5-Hydroxy-4-oxo-4H-pyran-2-yl)methyl)-1H-1,2,3-triazol-5-yl)methoxy)benzylidene)hydrazinecarbothioamide [Compound 6l]”, the IC50 in assay [1] came out at 40.23 ± 0.071 µM; in assay [2], 81.67 ± 0.073 µM; at mushroom tyrosinase it was 5.45 ± 0.077 µM.

Regarding `Cc1ccc(OCc2cn(Cc3cc(=O)c(O)co3)nn2)c(C=NNC(N)=S)c1` [Compound 6i, 2-(2-((1-((5-Hydroxy-4-oxo-4H-pyran-2-yl)methyl)-1H-1,2,3-triazol-4-yl)methoxy)-5-methylbenzylidene)hydrazinecarbothioamide], the IC50 in assay [1] worked out at 61.66 ± 0.091 µM; in assay [2] it was 248.1 ± 0.041 µM.

On to `CC(=NNC(N)=S)c1ccc(C)cc1OCc1cn(Cc2cc(=O)c(O)co2)nn1` [Compound 6u, 2-(1-(2-((1-((5-Hydroxy-4-oxo-4H-pyran-2-yl)methyl)-1H-1,2,3-triazol-4-yl)methoxy)-4-methylphenyl)ethylidene)hydrazinecarbothioamide], for which the IC50 in assay [1] came to 5.27 ± 0.078 µM; in assay [2], 55.7 ± 0.154 µM.

With `O=C1O[C@H]([C@@H](O)CO)C(O)=C1O` [Vitamin C, Ascorbic acid, reference compound], the IC50 in assay [1] was 55.48 ± 0.04 µM; in assay [2], 27.25 ± 0.015 µM.

Consider `CC(=NNC(N)=S)c1ccc(F)cc1OCc1cn(Cc2cc(=O)c(O)co2)nn1` [Compound 6q, 2-(1-(4-Fluoro-2-((1-((5-hydroxy-4-oxo-4H-pyran-2-yl)methyl)-1H-1,2,3-triazol-4-yl)methoxy)phenyl)ethylidene)hydrazinecarbothioamide], for which the IC50 was found to be 6.61 ± 0.054 µM in assay [1] and 47.05 ± 0.042 µM in assay [2].

`Cc1ccc(C=NNC(N)=S)c(OCc2cn(Cc3cc(=O)c(O)co3)nn2)c1` [Compound 6f, 2-(2-((1-((5-Hydroxy-4-oxo-4H-pyran-2-yl)methyl)-1H-1,2,3-triazol-4-yl)methoxy)-4-methylbenzylidene)hydrazinecarbothioamide]: the IC50 came out at 34.95 ± 0.061 µM in assay [1] and 99.6 ± 0.056 µM in assay [2].

`CC(=NNC(N)=S)c1ccccc1OCc1cn(Cc2cc(=O)c(O)co2)nn1` [Compound 6p, 2-(1-(2-((1-((5-Hydroxy-4-oxo-4H-pyran-2-yl)methyl)-1H-1,2,3-triazol-4-yl)methoxy)phenyl)ethylidene)hydrazinecarbothioamide]: the IC50 in assay [1] was found to be 3.19 ± 0.034 µM; in assay [2] it was 10.53 ± 0.014 µM.

Regarding `NC(=S)NN=Cc1cc(Cl)ccc1OCc1cn(Cc2cc(=O)c(O)co2)nn1` [Compound 6g, 2-(5-Chloro-2-((1-((5-hydroxy-4-oxo-4H-pyran-2-yl)methyl)-1H-1,2,3-triazol-4-yl)methoxy)benzylidene)hydrazinecarbothioamide], the results for the IC50 in assay [1] and in assay [2] were 52.65 ± 0.109 µM and 133.8 ± 0.048 µM, respectively.

On to “2-(4-((1-((5-Hydroxy-4-oxo-4H-pyran-2-yl)methyl)-1H-1,2,3-triazol-5-yl)methoxy)benzylidene)hydrazinecarbothioamide [Compound 6m]”, for which the results for the IC50 (in assay [1]; in assay [2]; at mushroom tyrosinase) were 36.17 ± 0.018 µM, 195 ± 0.038 µM and 1.58 ± 0.092 µM, respectively.

Turning to `NC(=S)NN=Cc1cc(Br)ccc1OCc1cn(Cc2cc(=O)c(O)co2)nn1` [Compound 6h, 2-(5-Bromo-2-((1-((5-hydroxy-4-oxo-4H-pyran-2-yl)methyl)-1H-1,2,3-triazol-4-yl)methoxy)benzylidene)hydrazinecarbothioamide], the IC50 in assay [1] amounted to 68.49 ± 0.091 µM; in assay [2] it was 118.4 ± 0.049 µM.

`COc1ccc(C(C)=NNC(N)=S)c(OCc2cn(Cc3cc(=O)c(O)co3)nn2)c1` [Compound 6t, 2-(1-(2-((1-((5-Hydroxy-4-oxo-4H-pyran-2-yl)methyl)-1H-1,2,3-triazol-4-yl)methoxy)-4-methoxyphenyl)ethylidene)hydrazinecarbothioamide]: the results for the IC50 in assay [1] and in assay [2] were 3.91 ± 0.064 µM and 86.3 ± 0.058 µM, respectively.

For the compound `NC(=S)NN=Cc1ccccc1OCc1cn(Cc2cc(=O)c(O)co2)nn1` [Compound 6a, (2-((1-((5-Hydroxy-4-oxo-4H-pyran-2-yl)methyl)-1H-1,2,3-triazol-4-yl)methoxy)benzylidene)hydrazinecarbothioamide], the IC50 in assay [1] turned out to be 43.89 ± 0.034 µM; in assay [2], 173.2 ± 0.058 µM.

`CC(=NNC(N)=S)c1ccc(Br)cc1OCc1cn(Cc2cc(=O)c(O)co2)nn1` [Compound 6s, 2-(1-(4-Bromo-2-((1-((5-hydroxy-4-oxo-4H-pyran-2-yl)methyl)-1H-1,2,3-triazol-4-yl)methoxy)phenyl)ethylidene)hydrazinecarbothioamide]: the IC50 in assay [1] came out at 11.29 ± 0.033 µM; in assay [2], 105.8 ± 0.092 µM.

For the compound `NC(=S)NN=Cc1ccc(Cl)cc1OCc1cn(Cc2cc(=O)c(O)co2)nn1` [Compound 6c, 2-(4-Chloro-2-((1-((5-hydroxy-4-oxo-4H-pyran-2-yl)methyl)-1H-1,2,3-triazol-4-yl)methoxy)benzylidene)hydrazinecarbothioamide], the IC50 in assay [1] turned out to be 72.03 ± 0.084 µM; in assay [2], 104.7 ± 0.088 µM.

In the case of `CCOc1cccc(C=NNC(N)=S)c1OCc1cn(Cc2cc(=O)c(O)co2)nn1` [Compound 6j, 2-(3-Ethoxy-2-((1-((5-hydroxy-4-oxo-4H-pyran-2-yl)methyl)-1H-1,2,3-triazol-4-yl)methoxy)benzylidene)hydrazinecarbothioamide], the values for the IC50 in assay [1] and in assay [2] were 6.78 ± 0.082 µM and 25.6 ± 0.031 µM, respectively.

For the compound `CC(=NNC(N)=S)c1ccc(Cl)cc1OCc1cn(Cc2cc(=O)c(O)co2)nn1` [Compound 6r, 2-(1-(4-Chloro-2-((1-((5-hydroxy-4-oxo-4H-pyran-2-yl)methyl)-1H-1,2,3-triazol-4-yl)methoxy)phenyl)ethylidene)hydrazinecarbothioamide], the IC50 in assay [1] came out at 4.49 ± 0.103 µM; in assay [2], 53.54 ± 0.088 µM.

In the case of `NC(=S)NN=Cc1ccc(F)cc1OCc1cn(Cc2cc(=O)c(O)co2)nn1` [Compound 6b, 2-(4-Fluoro-2-((1-((5-hydroxy-4-oxo-4H-pyran-2-yl)methyl)-1H-1,2,3-triazol-4-yl)methoxy)benzylidene)hydrazinecarbothioamide], the IC50 was 63.1 ± 0.042 µM in assay [1] and 105.4 ± 0.115 µM in assay [2].

As to `COc1ccc(C=NNC(N)=S)c(OCc2cn(Cc3cc(=O)c(O)co3)nn2)c1` [Compound 6e, 2-(2-((1-((5-Hydroxy-4-oxo-4H-pyran-2-yl)methyl)-1H-1,2,3-triazol-4-yl)methoxy)-4-methoxybenzylidene)hydrazinecarbothioamide], the figures for the IC50 in assay [1] and in assay [2] were 8.24 ± 0.048 µM and 87.47 ± 0.144 µM, respectively.

For the compound `CC(=NNC(N)=S)c1cccc(OCc2cn(Cc3cc(=O)c(O)co3)nn2)c1` [Compound 6v, 2-(1-(3-((1-((5-Hydroxy-4-oxo-4H-pyran-2-yl)methyl)-1H-1,2,3-triazol-4-yl)methoxy)phenyl)ethylidene)hydrazinecarbothioamide], the IC50 came to 3.2 ± 0.091 µM in assay [1] and 16.27 ± 0.093 µM in assay [2].

Regarding `NC(=S)NN=Cc1ccc(Br)cc1OCc1cn(Cc2cc(=O)c(O)co2)nn1` [Compound 6d, 2-(4-Bromo-2-((1-((5-hydroxy-4-oxo-4H-pyran-2-yl)methyl)-1H-1,2,3-triazol-4-yl)methoxy)benzylidene)hydrazinecarbothioamide], the IC50 turned out to be 91.1 ± 0.033 µM in assay [1] and 71.43 ± 0.036 µM in assay [2].
